These are literature values, as cited in US20090092657A1, “Amino acid combinant omega oil aphrodisiac” (priority 2007, published 2009).

The conditions of data set [1]: for erection after injection: injected directly into the corpus cavernosum using a hypodermic needle; for duration of erection: intracavernosal injection, appropriate dose.
For data set [2] the following is noted: 1989 outbreak traced to L-tryptophan supplied by Showa Denko KK.
The conditions of data set [3]: buccal administration of 100 I.U. three times a day for 14 days.

With `CCN(CC)CCOC(=O)C(Cc1cccc2ccccc12)CC1CCCO1` (mixture of isomers) [naftidrofuryl], the erection after injection entry in data set [1] was “caused erection”. With `N[C@@H](Cc1c[nH]c2ccccc12)C(=O)O` [L-tryptophan], in data set [2], the “cases of eosinophilia-myalgia syndrome (EMS) in the outbreak” value is given as 1500 cases and the “deaths in the EMS outbreak” value was “at least 37 deaths”.

For `CN(C)CCCN1c2ccccc2CCc2ccccc21` [imipramine], in data set [1], the erection after injection entry is “caused erection”. For the molecule `CC[C@H](C)[C@@H]1NC(=O)[C@H](Cc2ccc(O)cc2)NC(=O)[C@@H](N)CSSC[C@@H](C(=O)N2CCC[C@H]2C(=O)N[C@@H](CC(C)C)C(=O)NCC(N)=O)NC(=O)[C@H](CC(N)=O)NC(=O)[C@H](CCC(N)=O)NC1=O` [oxytocin], the “improvement of impotentia erectionis, patients improved of patients treated” value in data set [3] is on record as 12 of the 16. Regarding `COc1ccc(Cc2nccc3cc(OC)c(OC)cc23)cc1OC` [papaverine], in data set [1], the erection after injection result is “caused erection” and the duration of erection entry is “unrelenting erection lasting for hours”.

Consider `CC(COc1ccccc1)N(CCCl)Cc1ccccc1` (centres unmarked) [phenoxybenzamine], for which, in data set [1], the erection after injection entry is recorded as “caused erection” and the duration of erection entry is “unrelenting erection lasting for hours”. Take `Cc1ccc(N(CC2=NCCN2)c2cccc(O)c2)cc1` [phentolamine]: in data set [1], the erection after injection result is “caused erection”. For the molecule `CC(=O)Oc1cc(C(C)C)c(OCCN(C)C)cc1C` [thymoxamine], the erection after injection entry in data set [1] was “caused erection”.
